Results taken from patent US7517658B2, “Methods for preparing compositions using a SNORF33 receptor” (H. Lundbeck A/S, priority 1999, dated 2009).
Values joined by “and” are separate entries in the source; they are usually repeats but may differ in a detail not shown here. Identical values can stand only once.

Experiments:
hSNORF33 = molecular target: T1, hSNORF33 (Homo sapiens, UniProt Q96RJ0); assay: [3H]-TYR binding (saturation and displacement) to human SNORF33 COS-7 membranes; design: expressed in transfected cells; host or cells: COS-7 (membranes); conditions: human SNORF33 in transfected COS-7 membranes; read-out: Mean Ki ± S.D.M., displacement of [3H]-tyramine
T1 sequence (Q96RJ0 1-339): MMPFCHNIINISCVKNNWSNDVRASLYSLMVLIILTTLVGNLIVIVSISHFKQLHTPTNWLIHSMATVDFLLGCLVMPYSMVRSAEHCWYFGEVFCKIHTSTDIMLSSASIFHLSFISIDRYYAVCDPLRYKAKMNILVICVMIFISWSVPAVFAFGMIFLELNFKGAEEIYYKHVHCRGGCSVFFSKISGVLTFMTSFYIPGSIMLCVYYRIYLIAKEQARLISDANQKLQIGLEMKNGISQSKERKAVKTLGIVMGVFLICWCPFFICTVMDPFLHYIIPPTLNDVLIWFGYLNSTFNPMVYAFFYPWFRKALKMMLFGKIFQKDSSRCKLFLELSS
Experimental: (§1) [^3H]-TYR and [^3H]-T binding assays were performed essentially as described by Mallard et al. (1992), with minor modifications. Radioligand binding assays were performed by diluting membranes prepared from cells expressing the receptor (with co-expression of the rat G-protein alpha S subunit for human SNORF33) in 25 mM Gly-Gly buffer (Sigma, pH=7.4 @ 0° C.) containing 5 mM ascorbate and 10 μM pargyline (final protein concentration in assay=100-300 μg/ml). Membranes were then incubated with either [^3H]-TYR (American Radiochemicals, specific activity 60 mCi/μmole) or [^3H]-T (Amersham, specific activity 98 mCi/μmole) in the presence or absence of competing ligands on ice for 30 min in a total volume of 250 μl in 96 well microtiter plates. The bound ligand was separated from free by filtration through GF/B filters presoaked in 0.5% polyethyleneimine (PEI), using Tomtec (Wallac) or Brandel Cell Harvester vacuum filtration device. After addition of Ready Safe (Beckman) scintillation fluid, bound radioactivity was quantitated using a Trilux (Wallac) scintillation counter (approximately 20% counting efficiency of bound counts). Data was fit to non-linear curves using GraphPad Prism.
(§2) In this manner, agonist or antagonist compounds that bind to the receptor may be identified as they inhibit the binding of the labeled ligand to the membrane protein of cells expressing the said receptor. Non-specific binding was defined as the amount of radioactivity remaining after incubation of membrane protein in the presence of 10 μM of the unlabeled amine corresponding to the radioligand used. In equilibrium saturation binding assays, membrane preparations or intact cells transfected with the receptor are incubated in the presence of increasing concentrations of the labeled compound to determine the binding affinity of the labeled ligand. The binding affinities of unlabeled compounds may be determined in equilibrium competition binding assays, using a fixed concentration of labeled compound in the presence of varying concentrations of the displacing ligands.

rSNORF33 = rSNORF33 (Rattus norvegicus, UniProt Q923Y9); assay: [3H]-TYR binding (saturation and displacement) to rSNORF33-transfected COS-7 membranes; design: expressed in transfected cells; host or cells: COS-7 (transient); conditions: rSNORF33 in transfected COS-7 membranes; 2–4 experiments; read-out: Mean Ki ± S.D.M., displacement of [3H]-tyramine
Chain of rSNORF33 (Q923Y9 whole entry): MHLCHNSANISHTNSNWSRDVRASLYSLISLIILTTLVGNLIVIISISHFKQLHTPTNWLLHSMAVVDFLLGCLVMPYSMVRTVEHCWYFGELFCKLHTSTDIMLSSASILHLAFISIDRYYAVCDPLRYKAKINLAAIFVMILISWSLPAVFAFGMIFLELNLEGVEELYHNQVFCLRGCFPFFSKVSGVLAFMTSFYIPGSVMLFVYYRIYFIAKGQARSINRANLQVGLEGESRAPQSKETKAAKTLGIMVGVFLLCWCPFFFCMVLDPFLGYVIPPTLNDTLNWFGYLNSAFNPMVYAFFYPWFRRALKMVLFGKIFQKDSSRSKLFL
Experimental: as §1, with “Radioligand” for “[^3H]-TYR and [^3H]-T binding assays were performed essentially as described by Mallard et al. (1992), with minor modifications. Radioligand”
as §2

mouse SNORF33 [1] = molecular target: T2, mouse SNORF33 (Mus musculus, UniProt Q923Y8); assay: cAMP assay at mouse SNORF33; assay type: cell-based
T2 construct: expressed in transfected cells; host or cells: COS-7 (membranes)
T2 sequence (Q923Y8 whole entry): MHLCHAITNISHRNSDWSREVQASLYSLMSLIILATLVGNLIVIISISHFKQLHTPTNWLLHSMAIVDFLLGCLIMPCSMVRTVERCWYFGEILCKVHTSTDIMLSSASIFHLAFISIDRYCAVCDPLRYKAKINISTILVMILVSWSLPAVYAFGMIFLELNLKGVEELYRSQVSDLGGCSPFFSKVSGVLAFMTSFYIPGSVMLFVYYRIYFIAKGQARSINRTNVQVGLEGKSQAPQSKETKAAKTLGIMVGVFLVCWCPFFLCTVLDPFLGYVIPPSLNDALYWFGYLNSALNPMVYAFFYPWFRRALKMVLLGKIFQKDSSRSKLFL
Experimental: The receptor-mediated stimulation or inhibition of cyclic AMP (cAMP) formation may be assayed in cells expressing the mammalian receptors. Cells are plated in 96-well plates or other vessels and preincubated in a buffer such as HEPES buffered saline (NaCl (150 mM), CaCl2 (1 mM), KCl (5 mM), glucose (10 mM)) supplemented with a phosphodiesterase inhibitor such as 5 mM theophylline, with or without protease inhibitor cocktail (For example, a typical inhibitor cocktail contains 2 μg/ml aprotinin, […] leupeptin, and 10 μg/ml phosphoramidon.) for 20 min at 37° C., in 5% CO2. Test compounds are added with or without […] forskolin and incubated for an additional 10 min at 37° C. The medium is then aspirated and the reaction stopped by the addition of 100 mM HCl or other methods. The plates are stored at 4° C. for 15 min, and the cAMP content in the stopping solution is measured by radioimmunoassay. Radioactivity may be quantified using a gamma counter equipped with data reduction software. Specific modifications may be performed to optimize the assay for the receptor or to alter the detection method of cAMP.
COS-7 cells were transiently transfected with rSNORF33 gene using the calcium phosphate method and plated in 96-well plates. 48 hours after transfection, cells were washed twice with Dulbecco's phosphate buffered saline (PBS) supplemented with 10 mM HEPES, 10 mM glucose, 5 mM theophylline and 10 μM pargyline and were incubated in the same buffer for 20 min at 37° C., in […] 5% CO2. Test compounds were added and cells were incubated for an additional 10 min at 37° C. The medium was then aspirated and the reaction stopped by the addition of 100 mM HCl. The plates were stored at −20° C. for 2-5 days. For cAMP measurement, plates were thawed and the cAMP content in each well was measured by radioimmunoassay cAMP Scintillation Proximity Assay (Amersham Pharmacia Biotech). Radioactivity was quantified using microbeta Trilux counter (Wallac).

mouse SNORF33 [2] = molecular target: T2, mouse SNORF33; assay: [3H]-TYR binding (saturation and displacement) to mouse SNORF33 COS-7 membranes; conditions: mouse SNORF33, displacement of [3H]TYR; read-out: Ki (individual determinations)
Experimental: as §1, §2

Row | SMILES | Ki (hSNORF33) [µM] | Ki (rSNORF33) [µM] | Agonism in the cAMP assay (mouse SNORF33 [1]) | Ki (mouse SNORF33 [2])
1 | NCCc1c[nH]c2ccccc12 [Tryptamine (T), Tryptamine] | 1.13 ± 0.372 | 0.07 ± 0.014 | full agonists | 0.14 µM
2 | NCCc1ccc(O)cc1 [Tyramine (TYR), Tyramine] | 0.051 ± 0.011 | 0.013 ± 0.004 | full agonists | 0.019 µM and 0.02 µM
3 | NCC(O)c1ccc(O)cc1 (stereo not shown) [Octopamine (OCT), Octopamine] | 0.417 ± 0.285 | 0.31 ± 0.071 | – | –
